The values that follow come from ChEMBL document CHEMBL1201862, “PubChem BioAssay data set” (2004).

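Briefly, cells in 96-well plates were exposed to five compound concentrations for 48 h, and endpoints were estimated by linear interpolation. Here, GI50 denotes the concentration required for 50% inhibition of growth.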 Activity calls are given as the source filed them. No stated cut-off is given here; in the data, active = GI50 up to about 1.1 µM and inactive = higher.

Some test systems named below: SK-MEL-5; HT-29; MDA-MB-231; LOX IMVI; SK-OV-3; RXF 393; SK-MEL-28; A498; SR; SF-539; A549; OVCAR-3; UACC-62; MDA-MB-435; OVCAR-8; PC-3; NCI-H460; MCF7; TK-10; T47D.
Holding throughout (experiment): NCI anticancer screen, dose series, 48 h

`COc1ccc(CNC(=O)[C@H](Cc2ccc(O)cn2)NC(C)=O)cc1OC`: the GI50 in the experiment on SK-MEL-5, in the experiment with HT-29, with MDA-MB-231, with LOX IMVI, in the experiment with SK-OV-3 and in the experiment on RXF 393 was > 100 µM (inactive) each time. Further, the GI50 with SK-MEL-28, in the experiment with A498, in the experiment on SR, in the experiment with SF-539, in the experiment with A549 and with OVCAR-3 was > 100 µM (inactive) each time. Further, the GI50 with UACC-62, in the experiment with MDA-MB-435, in the experiment on OVCAR-8, with PC-3, in the experiment on NCI-H460 and with MCF7 was > 100 µM (inactive) in each case. Besides, the GI50 in the experiment with TK-10 and with T47D was > 100 µM (inactive) in each case.
In the case of `COc1ccc2[nH]c3c(C)c4ccnc(NCCCN(C)CCCNC(=O)NCCCN(C)CCCNc5nccc6c(C)c7[nH]c8ccc(OC)cc8c7c(C)c56)c4c(C)c3c2c1`, the GI50 with SK-MEL-5 was 0.774 µM (active); with HT-29, 0.245 µM (active); in the experiment on MDA-MB-231, 0.403 µM (active); with LOX IMVI, 0.855 µM (active); in the experiment with SK-OV-3 it was 1.67 µM (inactive); in the experiment with RXF 393 it was 0.369 µM (active). Besides, the GI50 with SK-MEL-28 was 1.48 µM (inactive); in the experiment with A498, 1.39 µM (inactive); in the experiment with SR, 0.102 µM (active); with SF-539, 0.314 µM (active); in the experiment on A549 it was 0.249 µM (active); in the experiment on OVCAR-3 it was 1.29 µM (inactive). The GI50 in the experiment with UACC-62 was 1.33 µM (inactive); in the experiment on MDA-MB-435 it was 0.466 µM (active); in the experiment on OVCAR-8 it was 0.638 µM (active); in the experiment with PC-3, 0.92 µM (active); with NCI-H460, 0.348 µM (active); with MCF7, 0.164 µM (active). Also, the results for the GI50 in the experiment with TK-10 and with T47D were 1.48 µM (inactive) and 0.69 µM (active), respectively.
As to `Cc1cccc(C2ON=C(c3ccccc3)N2C23CC4CC(CC(C4)C2)C3)c1` (stereo not given), the GI50 with SK-MEL-5, in the experiment on HT-29, in the experiment on MDA-MB-231, with LOX IMVI, in the experiment on SK-OV-3 and with RXF 393 was > 10 µM (inactive) in each case. Also, the GI50 in the experiment on SK-MEL-28, in the experiment with A498, with SR, in the experiment on SF-539, with A549 and in the experiment with OVCAR-3 was > 10 µM (inactive) in each case. The GI50 in the experiment with UACC-62 is > 10 µM (inactive); with MDA-MB-435, > 10 µM (inactive); in the experiment with OVCAR-8, > 10 µM (inactive); in the experiment with PC-3 it was > 10 µM (inactive); in the experiment on NCI-H460, > 10 µM (inactive); in the experiment with MCF7, 3.6 µM (inactive). Besides, the GI50 in the experiment on TK-10 and with T47D was > 10 µM (inactive) in each case.
Regarding `Nc1[nH]c(=S)[nH]c(=O)c1/N=N/c1c(Br)cc(S(N)(=O)=O)cc1Br`, the GI50 with SK-MEL-5, in the experiment with HT-29, with MDA-MB-231, in the experiment on LOX IMVI, in the experiment on SK-OV-3 and in the experiment on RXF 393 was > 100 µM (inactive) throughout. In addition, the GI50 with SK-MEL-28, in the experiment with A498, in the experiment with SR, in the experiment on SF-539, with A549 and in the experiment with OVCAR-3 was > 100 µM (inactive) each time. Moreover, the GI50 in the experiment on UACC-62, in the experiment with MDA-MB-435, in the experiment on OVCAR-8, with PC-3, in the experiment on NCI-H460 and in the experiment with MCF7 was > 100 µM (inactive) each time. Further, the GI50 with TK-10 and in the experiment on T47D was > 100 µM (inactive) in each case.
